One test concerns c-MYC. The test can be described thus: In Vitro Translation Dose-Response Curves (In Vitro Multiple Point Translation Screening Assay). It is filed as biochemical. The note with it: IVT dose response curve. As to the method: HeLa S3 cell Preparation. HeLa S3 cells were grown essentially as described in Mikami 2010. Frozen aliquots of banked HeLa cells (ATCC #CCL-2.2) were thawed and diluted into agitated suspension culture in CD293 medium supplemented with 10% HI FBS, 1× GlutaMAX, and 1× Pen/Strep. Cells were expanded in suspension over 10 passages to inoculate 3×20 L wave bag bioreactors and cultured for approximately 48 h to a final density of 1.81×10^6 viable cells per mL. Cells were pelleted by centrifugation at 2500 RCF for 15 min at 4° C. Two 1 L pellets were combined in 32 sets and re-pelleted in 50 ml conical tubes, resulting in 32×10 mL cell pellets weighing approximately 10 g each. Final pellets were snap frozen in liquid nitrogen and stored at −80° C. (cell culture, harvesting, and cryo-preservation completed at LakePharma). Cell pellets were subsequently thawed at RT, resuspended in 15 mL wash buffer (35 mM HEPES-KOH, pH 7.5, 140 mM NaCl, and 11 mM glucose), then re-pelleted by centrifugation at 2500 RCF for 10 min at 4° C. The supernatant was discarded and the wash step repeated 2×. The pellets were resuspended each pellet in 10 mL in hypertonic extraction buffer (20 mM HEPES-KOH, pH 7.5, 45 mM potassium acetate, 45 mM KCl, 1.8 mM magnesium acetate, and 1 mM TCEP added directly before use). The cell suspension was transferred to a cell disruption vessel (Parr Instrument Company, model 4636, 1850 mL capacity) and incubated for 15 min on ice, then sealed under nitrogen (200 PSI) for 1.5 h. The cell homogenates were released through a needle valve and collected on ice, then diluted with 1/29 volume high potassium buffer (20 mM HEPES-KOH, pH 7.5, 945 mM potassium acetate, 945 mM KCl, 1.8 mM magnesium acetate, and 1 mM TCEP). The cell homogenates were then clarified by centrifugation at 2500 RCF for 10 min at 4° C. and the supernatant collected. The clarification step was repeated 3×. The resulting cell extracts (675 mL, 2.5 mg/mL total protein) were aliquoted and flash frozen in liquid nitrogen and stored at −80° C. until use.
Translation reactions were incubated for 20 min at 30° C. Nanoluciferase luminescence was measured by combining 2 μL of IVT reaction with 20 μL of prepared reagent from the Nanoglo assay kit (Promega). A negative control of 0.5% DMSO and positive control of 50 μM puromycin were used to define to assay window.
Dose response curve IVTs were performed similar to the single point IVT screening with the following changes. The desired concentration curves were plated into 384 well plates from DMSO stocks using a Tecan D300e dispenser. […] After reaction incubation and luminescence measurement, dose-response curves were fit to the data using Prism (Graphpad) or Collaborative Drug Discovery analysis programs.
`Cc1cccc2ccnc(N(C(=O)c3ccc(-n4ccnn4)cc3)[C@@H]3CCCNC3)c12` [Example 54, (R)-N-(8-methylisoquinolin-1-yl)-N-(piperidin-3-yl)-4-(1H-1,2,3-triazol-1-yl)benzamide]: the “Geomean pIC50” value is listed as 4.70 (n = 2).

In the case of `Cc1cccc2ccnc(N(C(=O)c3ccc(-n4c(C)nc5ccccc54)cc3)[C@@H]3CCCNC3)c12` [Example 57, (R)-4-(2-methyl-1H-benzo[d]imidazol-1-yl)-N-(8-methylisoquinolin-1-yl)-N-(piperidin-3-yl)benzamide], the “Geomean pIC50” value is reported as 4.6 (n = 2).

For a further test, the system named is HCT-116 Firefly-luciferase reporter cells. The test can be described thus: Cellular c-MYC Reporter Assay. The conditions noted are these: Homo sapiens, HCT-116, 24 h, HCT-116 Firefly-luciferase reporter cells, 24 h; read-out: Geomean pEC50 (converted). It is filed as cell-based. Summed up:
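Reporter cells seeded at 5e4 cells/mL in McCoy's 5A with 10% FBS and G418, dosed after 4–6 h at 0.2% final DMSO. After 24 h at 37 °C, luciferase luminescence was read with ONE-Glo.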
`Cc1cccc2ccnc(N(C(=O)c3ccc(-n4c(C)nc5ccccc54)cc3)[C@@H]3CCCNC3)c12` [Example 57, (R)-4-(2-methyl-1H-benzo[d]imidazol-1-yl)-N-(8-methylisoquinolin-1-yl)-N-(piperidin-3-yl)benzamide]: the EC50 is 257 nM.

Still in this test, the particulars now being: Homo sapiens; untitled table following Table 8a; HCT-116 Firefly-luciferase reporter cells, 24 h; read-out: pIC50 (converted).
On to `Cc1cccc2ccnc(N(C(=O)c3ccc(Nc4ncns4)cc3F)[C@@H]3CCCNC3)c12` [Example 280, 2-fluoro-N-(8-methyl-1-isoquinolyl)-N-[(3R)-3-piperidyl]-4-(1,2,4-thiadiazol-5-ylamino)benzamide], for which the IC50 was 891 nM.

For the molecule `Cc1cccc2ccnc(N(C(=O)c3ccc(Nc4nnc(C(F)(F)F)s4)cc3F)[C@@H]3CCCNC3)c12` [Example 281, 2-fluoro-N-(8-methyl-1-isoquinolyl)-N-[(3R)-3-piperidyl]-4-[[5-(trifluoromethyl)-1,3,4-thiadiazol-2-yl]amino] benzamide], the IC50 was 2630 nM.

With `Cc1cccc2ccnc(N(C(=O)c3cccc(Cn4nccn4)c3F)[C@@H]3CCCNC3)c12` [Example 282, (R)-3-((2H-1,2,3-triazol-2-yl)methyl)-2-fluoro-N-(8-methylisoquinolin-1-yl)-N-(piperidin-3-yl)benzamide], the IC50 was 4170 nM.

`O=C(c1ccc(-n2nnc3cccnc32)cc1F)N(c1nccc2ccc(Br)cc12)[C@@H]1CCCNC1` [Example 283, (R)-4-(3H-[1,2,3]triazolo[4,5-b]pyridin-3-yl)-N-(7-bromoisoquinolin-1-yl)-2-fluoro-N-(piperidin-3-yl)benzamide]: the IC50 was 1200 nM.

`Cc1ccnc(N(C(=O)c2ccc(-n3nnc4cccnc43)cc2F)[C@@H]2CCCNC2)c1Cl` [Example 284, (R)-4-(3H-[1,2,3]triazolo[4,5-b]pyridin-3-yl)-N-(3-chloro-4-methylpyridin-2-yl)-2-fluoro-N-(piperidin-3-yl)benzamide]: the IC50 is 1200 nM.

With `Cc1cccc2ccnc(N(C(=O)c3ccc(-n4nnc(C(C)C)n4)cc3F)[C@@H]3CCCNC3)c12` [Example 285, (R)-2-fluoro-4-(5-isopropyl-2H-tetrazol-2-yl)-N-(8-methylisoquinolin-1-yl)-N-(piperidin-3-yl) benzamide], the IC50 is 295 nM.

On to `CCCc1nnn(-c2ccc(C(=O)N(c3nccc4cccc(C)c34)[C@@H]3CCCNC3)c(F)c2)n1` [Example 286, (R)-2-fluoro-N-(8-methylisoquinolin-1-yl)-N-(piperidin-3-yl)-4-(5-propyl-2H-tetrazol-2-yl) benzamide], for which the IC50 was 195 nM.

As to `Cc1cccc2ccnc(N(C(=O)N3CC=C(c4ccccc4)CC3)[C@@H]3CCCNC3)c12` [Example 287, (R)—N-(8-methylisoquinolin-1-yl)-4-phenyl-N-(piperidin-3-yl)-3,6-dihydropyridine-1(2H)-carboxamide], the IC50 was 5890 nM.

Turning to `Cc1cccc2ccnc(N(C(=O)N3CCC(c4cc(C(N)=O)no4)CC3)[C@@H]3CCCNC3)c12` [Example 288, (R)-5-(1-((8-methylisoquinolin-1-yl)(piperidin-3-yl)carbamoyl)piperidin-4-yl)isoxazole-3-carboxamide], the IC50 is 1350 nM.

Take `O=C(c1ccc(-n2nnc3cccnc32)cc1F)N(c1ncccc1/C=C/CO)[C@@H]1CCCNC1` [Example 289, (R,E)-4-(3H-[1,2,3]triazolo[4,5-b]pyridin-3-yl)-2-fluoro-N-(3-(3-hydroxyprop-1-en-1-yl)pyridin-2-yl)-N-(piperidin-3-yl)benzamide]: the IC50 was greater than 5890 nM.

Take `Cc1cccc2ccnc(N(C(=O)c3ccc(Nc4ncco4)cc3F)[C@@H]3CCCNC3)c12` [Example 290, (R)-2-fluoro-N-(8-methylisoquinolin-1-yl)-4-(oxazol-2-ylamino)-N-(piperidin-3-yl) benzamide]: the IC50 is 3390 nM.

Regarding `O=C(c1ccc(-c2cccc3cnccc23)cc1F)N(c1cc2ccccc2cn1)[C@@H]1CCCNC1` [Example 291, (R)-2-fluoro-N-(isoquinolin-3-yl)-4-(isoquinolin-5-yl)-N-(piperidin-3-yl)benzamide], the IC50 is 1260 nM.

Regarding `Cc1cccc2ccnc(N(C(=O)c3ccc(Nc4cccc(=O)[nH]4)cc3F)[C@@H]3CCCNC3)c12` [Example 292, (R)-2-fluoro-N-(8-methylisoquinolin-1-yl)-4-((6-oxo-1,6-dihydropyridin-2-yl)amino)-N-(piperidin-3-yl)benzamide], the IC50 is greater than 20000 nM.

For the molecule `Cc1cccc2ccnc(N(C(=O)c3ccc(-n4nnc5ccc(C(=O)O)nc54)cc3F)[C@@H]3CCCNC3)c12` [Example 293, (R)-3-(3-fluoro-4-((8-methylisoquinolin-1-yl)(piperidin-3-yl)carbamoyl)phenyl)-3H-[1,2,3]triazolo[4,5-b]pyridine-5-carboxylic acid], the IC50 was greater than 20000 nM.

Regarding `Cc1cccc2ccnc(N(C(=O)c3ccc(-c4cnn(C)c4C(=O)O)cc3)[C@@H]3CCCNC3)c12` [Example 294, 2-methyl-4-[4-[(8-methyl-1-isoquinolyl)-[(3R)-3-piperidyl]carbamoyl]phenyl] pyrazole-3-carboxylic acid], the IC50 is greater than 10000 nM.

For `O=C(O)/C=C/c1ccc2ccnc(N(C(=O)c3ccc(-n4nnc5cccnc54)cc3F)[C@@H]3CCCNC3)c2c1` [Example 295, (R,E)-3-(1-(4-(3H-[1,2,3]triazolo[4,5-b]pyridin-3-yl)-2-fluoro-N-(piperidin-3-yl)benzamido)isoquinolin-7-yl)acrylic acid], the IC50 was greater than 20000 nM.

Take `Cc1cccc2ccnc(N(C(=O)c3ccc(-c4n[nH]c5c4CNCC5)cc3F)[C@@H]3CCCNC3)c12` [Example 296, (R)-2-fluoro-N-(8-methylisoquinolin-1-yl)-N-(piperidin-3-yl)-4-(4,5,6,7-tetrahydro-1H-pyrazolo[4,3-c]pyridin-3-yl)benzamide]: the IC50 was greater than 20000 nM.

For `Cc1cccc2ccnc(N(C(=O)N3CCC(O)(c4ccccc4OCc4ccccc4)CC3)[C@@H]3CCCNC3)c12` [Example 297, (R)-4-(2-(benzyloxy)phenyl)-4-hydroxy-N-(8-methylisoquinolin-1-yl)-N-(piperidin-3-yl)piperidine-1-carboxamide], the IC50 is 7760 nM.

As for `Cc1cccc2ccnc(N(C(=O)c3ccc(-n4nnc(C(C)Cl)n4)cc3F)[C@@H]3CCCNC3)c12` (stereo partly drawn) [Example 298, 4-(5-(1-chloroethyl)-2H-tetrazol-2-yl)-2-fluoro-N-(8-methylisoquinolin-1-yl)-N—((R)-piperidin-3-yl) benzamide], the IC50 was 263 nM.

Consider `Cc1cccc2ccnc(N(C(=O)N3CC=C(c4ccccc4OCc4ccccc4)CC3)[C@@H]3CCCNC3)c12` [Example 299, (R)-4-(2-(benzyloxy)phenyl)-N-(8-methylisoquinolin-1-yl)-N-(piperidin-3-yl)-3,6-dihydropyridine-1(2H)-carboxamide], for which the IC50 is 5500 nM.

For `O=C(c1ccc(-n2nnc3cccnc32)cc1F)N(c1nccc2ccncc12)[C@@H]1CCCNC1` [Example 300, (R)-4-(3H-[1,2,3]triazolo[4,5-b]pyridin-3-yl)-2-fluoro-N-(2,7-naphthyridin-1-yl)-N-(piperidin-3-yl)benzamide], the IC50 was greater than 20000 nM.

For `Cc1cccc2ccnc(N(C(=O)C3CCN(C=O)CC3)[C@@H]3CCCNC3)c12` [Example 301, (R)-1-formyl-N-(8-methylisoquinolin-1-yl)-N-(piperidin-3-yl) piperidine-4-carboxamide], the IC50 was greater than 10000 nM.

For the origin of these results see US20240400555A1 (Initial Therapeutics, Inc., priority 2023, published 2024).
